Data: BindingDB's records for doi:10.1111/cbdd.12572 (Depaul University, 2015)

target: T1, Caspase-1 (Homo sapiens, UniProt P29466); experiment: Inhibition Assay; details: pH 7.5; 25 °C
T1 sequence (P29466 whole entry): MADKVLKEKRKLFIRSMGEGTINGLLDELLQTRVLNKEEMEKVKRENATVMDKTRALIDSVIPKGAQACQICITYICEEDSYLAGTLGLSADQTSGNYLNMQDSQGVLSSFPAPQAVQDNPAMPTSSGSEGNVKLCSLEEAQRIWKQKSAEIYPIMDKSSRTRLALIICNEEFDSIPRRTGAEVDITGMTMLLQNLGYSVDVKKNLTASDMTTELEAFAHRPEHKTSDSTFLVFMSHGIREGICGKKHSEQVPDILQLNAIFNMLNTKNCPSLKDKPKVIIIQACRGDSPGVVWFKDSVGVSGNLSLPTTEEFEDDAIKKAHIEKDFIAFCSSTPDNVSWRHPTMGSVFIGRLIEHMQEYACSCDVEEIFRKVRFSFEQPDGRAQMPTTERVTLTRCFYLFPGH
Method: All assays were performed at 100 µL total volume in triplicate and monitored for 60 minutes at room temperature in a 96-well plate format in HEPES Buffer (100 mM HEPES, 100 mM NaCl, 0.1% CHAPS, 10% sucrose, pH 7.5) on a BioTek Synergy H1 plate reader. Fluorescence was measured with excitation and emission wavelengths of 380 nm and 460 nm, respectively. Caspase-1 was activated with 100 µM DTT for 30 minutes and held constant at 5 nM for all assays. WEHD-AMC was used as a substrate for all assays at 10 µM unless otherwise specified and reactions were monitored immediately upon addition to caspase-1.

Row | IC50 [µM] | SMILES
1 | > 10 | CCCCCC#CCC#CCC#CCC#CCCCC(=O)O
2 | 2.23 | N#C/C(=C\c1ccc(O)c(O)c1)C(=O)OC/C=C/c1ccccc1
3 | 1.8 | CCN(CC)C(=S)SSC(=S)N(CC)CC [1,1',1'',1'''-[disulfanediylbis(carbonothioylnitrilo)]tetraethane]
4 | 0.6 | CCCCCCCCCCCCCCCC(=O)OC[C@H](O)[C@H]1OC(=O)C(O)=C1O [Ascorbyl Palmitate]
5 | > 10 | CC(Cc1ccc(O)c(O)c1)C(C)Cc1ccc(O)c(O)c1 (stereo not drawn) [LOX inhibitor, N/A]
6 | 0.84 | CCCCCCCCOC(=O)/C=C/c1ccc(O)c(O)c1 [Octyl (2E)‐3‐(3,4‐dihydroxyphenyl)prop‐2‐enoate (E6)]
7 | 0.167 | Cc1c(C)c2c(c(C)c1O)CC[C@](C)(CN1CCN(c3cc(N4CCCC4)nc(N4CCCC4)n3)CC1)O2 [U83836E (B8)]
8 | 6.76 | CC/C=C\C/C=C\C/C=C\C/C=C\C/C=C\C/C=C\CCC(=O)O [all-cis-docosa-4,7,10,13,16,19-hexaenoic acid]

The next lines start with the compound.

Row | SMILES | IC50 [µM]
9 | O=c1c2ccccc2[se]n1-c1ccccc1 [2-Phenyl-benzo[d]isoselenazol-3-one] | 4.04
10 | CC1=CC(=O)C(C(C)C)=CC1=O [2-methyl-5-(propan-2-yl)cyclohexa-2,5-diene-1,4-dione (F8)] | 1.08
11 | CC1(C)CCC2=C(O1)c1ccccc1C(=O)C2=O [R115 (Reactive Blue 2)] | 1.69
12 | Cc1cc2c(C(C)C)c(O)c(O)c(C=O)c2c(O)c1-c1c(C)cc2c(C(C)C)c(O)c(O)c(C=O)c2c1O [Tash 1] | 1.23
13 | C[C@]12C=CC(=O)C=C1CC[C@@H]1C2=CC[C@]2(C)[C@@H](C(=O)CN3CCN(c4cc(N5CCCC5)nc(N5CCCC5)n4)CC3)CC[C@@H]12 [U74389G (B9)] | 0.174
